From the CATMoS acute toxicity set (Mansouri et al. 2021)

Assay: GHS categories as the set defines them, by LD50: 1 up to 5, 2 up to 50, 3 up to 300, 4 up to 2000, 5 above 2000 mg/kg
Settings: rat; in vivo; po

Row | Compound | GHS category
1 | O=C1NC(=O)C(c2ccc(O)cc2)(c2ccc(O)cc2)N1 | 5
2 | CCCc1c(Cc2ccc(-c3ccccc3-c3nn[nH]n3)cc2)c(=S)nc2nc[nH]n12 | 4
3 | C[C@@H]1C[C@H]2[C@@H]3CCC4=CC(=O)C=C[C@]4(C)[C@@]3(F)[C@@H](O)C[C@]2(C)[C@@]1(O)C(=O)COS(=O)(=O)O | 5
4 | O=C1NC(=O)C(c2ccc(O)cc2)(c2ccc(O)c(Cl)c2)N1 (centres undefined) | 5
5 | CCCNC(=O)c1sc(-c2ccccc2OC)nc1C | 5
6 | CC1CC(C)C(C)CC1C (centres undefined) | 5
7 | O=C1C(O)N=C(c2ccccc2)c2cc(Cl)ccc2N1CC1CC1 (centres undefined) | 5
8 | Cc1cc2c(cc1S(N)(=O)=O)S(=O)(=O)CCC2 | 5
9 | CCCC1O[C@@H]2C[C@H]3[C@@H]4CCC5=CC(=O)C=C[C@]5(C)[C@H]4[C@@H](O)C[C@]3(C)[C@]2(C(=O)CO)O1 (some centres undefined) | 5
10 | CCCC1(C)COC(Cn2cncn2)(c2cc3ccccc3o2)OC1 (centres undefined) | 4
11 | Cc1cc(C)cc(N2C(=O)c3ccc4c5ccc6c7c(ccc(c8ccc(c3c48)C2=O)c75)C(=O)N(c2cc(C)cc(C)c2)C6=O)c1 | 5
12 | Cc1[nH]c2ccc(O)cc2c1CC(=O)OCC(=O)O | 5
13 | CCCCCCCOCC(COCCCCCCC)(COCCCCCCC)COCCCCCCC | 5
14 | COc1cc(OC)nc(NC(=O)NS(=O)(=O)c2c(-c3nnn(C)n3)cnn2C)n1 | 5
15 | C[C@H]1C[C@@H]2[C@H]([C@@H](O)C[C@@]3(C)[C@H]2CC[C@]3(O)C(=O)CO)[C@@]2(C)C=CC(=O)C=C12 | 5
16 | CCCNC(=O)c1cnc2cccc(C)n2c1=O | 3
17 | CCCCCCCCCCCCCCC(C)c1cc(C)cc(C)c1O (centres undefined) | 5
18 | NC(N)=N[C@@H](CS)C(=O)O | 5
19 | CCCCCCCCC=COCC | 5
20 | OCCOc1ccc(OCCO)cc1 | 5
21 | O=C(Nc1ccc(Cl)cc1C(O)c1ccccc1)c1ccncc1 (centres undefined) | 5
22 | CC(C)CCCCCC(=O)NCCCCCC(=O)O | 5

Row | Compound | GHS category
23 | O=c1cc(-c2ccccc2)c2ccc(OCCCN3CCC(c4ccccc4)CC3)cc2[nH]1 | 4
24 | CCOC(=O)C(SP(=S)(OC)OC)C(SP(=S)(OC)OC)C(=O)OCC (centres undefined) | 4
25 | COC(F)(F)C(C(F)(F)F)C(F)(F)F | 3
26 | NC(=O)CC1(CC(=O)O)CCCCC1 | 5
27 | CCCC(C)C=O (centres undefined) | 5
28 | OC1c2ccccc2CCc2ccncc21 (centres undefined) | 5
29 | O=C1OC(CN2CCOCC2)CC12CC(CN1CCOCC1)OC2=O (centres undefined) | 5
30 | Oc1cc(O)c2c(c1)O[C@H](c1ccc(O)c(O)c1)[C@@H](O)C2 | 5
31 | CCCCCCCCCCCCCCCC(=O)OC[C@H](O)[C@H]1OC(=O)C(O)=C1O | 5
32 | CS(=O)(=O)c1ccc([C@@H](O)[C@@H](CO)NC(=O)C(Cl)Cl)cc1 | 5
33 | C=C1C2CCC(C2)C1(C)C (centres undefined) | 5
34 | CC(C)(C)C1CCC(OC(=O)Cl)CC1 (centres undefined) | 5
35 | O=[N+]([O-])c1cc(C(F)(F)F)c(Cl)c([N+](=O)[O-])c1Nc1ncc(C(F)(F)F)cc1Cl | 5
36 | C=CC(C)(O)CCC=C(C)CCC=C(C)C (centres undefined) | 5
37 | COc1ccccc1NC(=O)c1cc2ccccc2cc1O | 5
38 | CC(C)(Oc1ccc(Cl)cc1)C(=O)OC(COC(=O)c1cccnc1)COC(=O)c1cccnc1 | 5
39 | CCCC(=O)NC(C)C(=O)O (centres undefined) | 5
40 | CN1CCN(C2=NS(=O)(=O)c3cc(Cl)ccc3N2)CC1 | 5
41 | CCCCCCCC/C=C\CCCCCCCC(=O)OC[C@@H](OC(=O)CCCCCCC/C=C\CCCCCCCC)[C@H]1OC[C@H](O)[C@H]1O | 5
42 | CO[C@H]1C=CO[C@@]2(C)Oc3c(C)c(O)c4c(c3C2=O)C2=NC3(CCN(CC(C)C)CC3)NC2=C(NC(=O)C(C)=CC=C[C@H](C)[C@H](O)[C@@H](C)[C@@H](O)[C@@H](C)[C@H](OC(C)=O)[C@@H]1C)C4=O | 5
43 | CCO[Si](CCCCl)(OCC)OCC | 5
44 | C#CCON=CC1=CCCN(C)C1 | 3

Row | Compound | GHS category
45 | CC(C)(C)c1ccc(OCC2CO2)cc1 (centres undefined) | 5
46 | O=C(O)c1ccc(OCCn2ccnc2)cc1 | 4
47 | CC[C@H](C)[C@@H]1NC(=O)[C@H](Cc2ccc(O)cc2)NC(=O)[C@@H](N)CSSC[C@@H](C(=O)N2CCC[C@H]2C(=O)N[C@@H](CC(C)C)C(=O)NCC(N)=O)NC(=O)[C@H](CC(N)=O)NC(=O)[C@H](CCC(N)=O)NC1=O | 2
48 | CC(C)C1(C)N=C(c2ncccc2C(=O)O)NC1=O (centres undefined) | 5
49 | CC(=O)Oc1ccccc1C(=O)Nc1ncc([N+](=O)[O-])s1 | 5
50 | COC(=O)C1=C(C)NC(COC(N)=O)=C(C(=O)OC(C)C)C1c1cccc(Cl)c1Cl (centres undefined) | 5
51 | CCCCC1COCC(C)C1OC(C)=O (centres undefined) | 5
52 | Cl[Si](Cl)(C1CCCC1)C1CCCC1 | 5
53 | C=CC(C)(CCC=C(C)C)OC(=O)Cc1ccccc1 (centres undefined) | 5
54 | O=C(OCCOCCO)c1cc(O)ccc1Nc1ccc(O)c(C(F)(F)F)c1 | 4
55 | COC(=O)C1=C(C)NC(C)=C(C(=O)OC(C)C)C1c1cccc2nonc12 (centres undefined) | 5
56 | O=C(O)CNC(c1ccccc1)c1ccccc1 | 4
57 | Cc1ccccc1OC(=O)c1ccccc1OC(N)=O | 5
58 | COc1ccc([C@@H]2CC(=O)c3c(O)cc(O[C@@H]4O[C@H](CO[C@@H]5O[C@@H](C)[C@H](O)[C@@H](O)[C@H]5O)[C@@H](O)[C@H](O)[C@H]4O)cc3O2)cc1O | 5
59 | CC(C)(C)c1ccc(OC(=O)C2CCC(CN=C(N)N)CC2)cc1 (centres undefined) | 2
60 | CC1CC2(CC(C)OC2=O)C(=O)O1 (centres undefined) | 5
61 | O=C1NC(=O)C(N=NC2C(=O)NC(=O)NC2=O)C(=O)N1 | 5
62 | O=C(O)C1C2C=CC(C2)C1C(=O)O (centres undefined) | 5
63 | CC1CC(OC(=O)C(C)Oc2cccc(C(F)(F)F)c2)CC(C)(C)C1 (centres undefined) | 5
64 | COc1ccc(C(=O)NCc2ccc(OCCN(C)C)cc2)cc1OC | 5
65 | CC1=CCC(C=CC(C)C(C)O)C1(C)C (centres undefined) | 4
66 | CCCC(=O)N(C)C(=O)Oc1cccc2c1OCO2 | 4

Row | Compound | GHS category
67 | O=C(O[C@H]1[C@H](OC(=O)c2cccnc2)[C@@H](OC(=O)c2cccnc2)[C@H](OC(=O)c2cccnc2)[C@@H](OC(=O)c2cccnc2)[C@H]1OC(=O)c1cccnc1)c1cccnc1 | 5
68 | O=C(Nc1ccc(NC(=O)c2cc3ccccc3c(N=Nc3ccc(Cl)cc3[N+](=O)[O-])c2O)c(Cl)c1)c1cc2ccccc2c(N=Nc2ccc(Cl)cc2[N+](=O)[O-])c1O | 5
69 | O=C(Nc1ccc(F)cc1F)c1cccnc1Oc1cccc(C(F)(F)F)c1 | 5
70 | Cn1nnnc1SCCCSc1ccncc1 | 4
71 | CCNC(=O)CCCSCc1nnnn1CC | 4
72 | CN(C)CCCNc1nc2cc(Cl)ccc2o1 | 4
73 | CCC(C(=O)NC(=O)NC(C)=O)c1ccccc1 (centres undefined) | 5
74 | Nc1nc2cc([N+](=O)[O-])ccc2o1 | 4
75 | ClCC(Cl)C(Cl)(Cl)Cl (centres undefined) | 4
76 | CNC(=O)/C(=N/OC)c1ccccc1COc1cc(C)ccc1C | 5
77 | NC(=O)N(CO)CO | 5
78 | C=C(C)C(C)(C)Cc1ccc(Nc2ccc(CC(C)(C)C(=C)C)cc2)cc1 | 5
79 | COP(=O)(OC)Oc1ccc(Cl)cc1Cl | 3
80 | COC(=O)CCCCCCCCCC[Si](C)(C)Cl | 5
81 | COC(=O)c1ccc2c(C3CCCC3)cn(C)c2c1 | 5
82 | CC(=O)OCC(C)=CCCC1(C)C2CC3C(C2)C31C (centres undefined) | 5
83 | CC[N+](CC)(CC)C(C)OS(=O)(=O)C(F)(F)C(F)(F)C(F)(F)C(F)(F)F (centres undefined) | 5
84 | O=C1CC(Nc2ccc(Cl)cc2Cl)=NN1c1c(Cl)cc(Cl)cc1Cl | 5
85 | Cc1ccc(OC(=O)Cc2ccccc2)cc1 | 5
86 | CC(C)c1cc2c(cc1S(=O)(=O)O)[C@@]1(C)CCC[C@@](C)(C(=O)O)[C@@H]1CC2 | 5
87 | OC1CCOC1 (centres undefined) | 5
88 | CSC(=O)c1c(C(F)F)nc(C(F)(F)F)c(C(=O)SC)c1CC(C)C | 5

Row | Compound | GHS category
89 | CN(C)CCOC(=O)C(c1ccccc1)C1(O)CCCC1 (centres undefined) | 5
90 | CCCCCCCC(=O)O[C@H]1CO[C@H]2[C@@H]1OC[C@H]2OC(=O)CCCCCCC | 5
91 | O=S(=O)(O)c1ccc2c(c1)-c1nc-2nc2[nH]c(nc3nc(nc4[nH]c(n1)c1ccc(S(=O)(=O)O)cc41)-c1ccc(S(=O)(=O)O)cc1-3)c1ccc(S(=O)(=O)Nc3ccc(S(=O)(=O)CCO)cc3)cc21 | 5
92 | C=CC1CCC(C2CCC(CCC)CC2)CC1 (centres undefined) | 5
93 | O=C1CCc2c(OCC(O)CN3CCC(Cc4ccccc4)CC3)cccc2N1Cc1ccccc1 (centres undefined) | 4
94 | CCCc1c(Cc2ccc(-c3ccccc3-c3nn[nH]n3)cc2)c(N)nc2ncnn12 | 4
95 | CC/C=C\CCCCCCCCOC(C)=O | 5
96 | CO[C@@H]1[C@@H](O[C@@H]2O[C@H](C)[C@@H](O[C@H]3C[C@@](C)(O)[C@@H](O)[C@H](C)O3)[C@H](N(C)C)[C@H]2O)[C@@H](CC=O)C[C@@H](C)[C@@H](O[C@@H]2CC[C@H](N(C)C)[C@@H](C)O2)C=CC=CC[C@@H](C)OC(=O)C[C@H]1OC(C)=O | 5
97 | CCCO[Si](OCCC)(OCCC)OCCC | 5
98 | O=S(=O)(O)Cc1ccccc1 | 4
99 | CCCCCCCCCCCCCCCCCCCCCCc1ccccc1 | 5
100 | CCNC(=O)NCc1cccc(Cl)c1 | 5
101 | Nc1ccc2oc(=O)[nH]c2c1 | 4
102 | Cc1cccc(N(C)C(=S)Oc2ccc3c(c2)C2CCC3C2)c1 (centres undefined) | 4
103 | CN/C(=N\[N+](=O)[O-])NCc1cnc(Cl)s1 | 5
104 | CCC(C)(C)NC(=O)c1cnc2cccc(C)n2c1=O | 3
105 | CCCCOC(=O)c1ccc(-n2nc(OCCN(C)C)c3ccccc32)cc1 | 4
106 | C[Si](Cl)(Cl)c1ccccc1 | 3
107 | CN1CC(c2ccon2)CC2c3cccc4[nH]cc(c34)CC21 (centres undefined) | 4
108 | COP(=O)(NC(=O)C(C)C)SC (centres undefined) | 4
109 | Cc1cc(C2(c3ccc(O)c(C)c3)CCCCC2)ccc1O | 5
